≈ marks a conversion by molar mass, not a printed value. Read-outs that look alike come from different tables or passages of the source.
Experiments:
[1] = target: T1, SP_0916 (arginine decarboxylase, ADC) (Streptococcus pneumoniae, UniProt A0A0H2UPK4); experiment: Inhibition of decarboxylase activities of recombinant SP_0916 (LC-MS); type: biochemical; settings: read-out: DFMA IC50
Text: We determined the impact of DFMO (ODC/ADC inhibitor) and α-difluoromethylarginine (DFMA, an ADC inhibitor) on the decarboxylase activities of SP_0916. BL21(DE3) cells expressing recombinant His tag SP_0916 were lysed with B-PER reagent buffer (Thermo Fisher Scientific, Waltham, MA, USA), lysate separated by loading unto HisPur Cobalt Spin Column (Thermo Fisher Scientific, Waltham, MA, USA), desalted using Sephadex G-25 PD-10 column (GE Healthcare, Chicago, IL, USA), and protein concentration estimated using the Pierce BCA Protein Assay kit (Thermo Fisher Scientific, Waltham, MA, USA).
SP_0916-encoded protein (0.926 µmol L^−1) was mixed with 10 mM substrate (arginine, lysine or ornithine) in the reaction mixture (500 µL reaction volume, 50 mM Tris–HCl, pH 8.0) that contains 2.5 mM MgSO4 and 0.6 mM PLP. DFMO was diluted in water to 3–900 mM and added to the reaction mixture after 5 min preincubation at 37 °C in the dark. DFMA stock was made in a similar manner but was diluted in water to 0.3–1000 µM. The enzyme and inhibitor were incubated at 37 °C for 15 min in the dark and the reaction terminated with 0.3 M perchloric acid. After incubation on ice for 15 min, the samples were neutralized with 25 µL of 10 N KOH and extracted with 1 mL of 1-butanol. The organic layer was dried under nitrogen gas and reconstituted with 100 µL of water containing Spermidine-d8 and Glucose-d7 as an internal standard. Analysis of the extracts was performed on a Surveyor LC–MS system. 5 µL of reconstitution was injected to the LC–MS system for detection of the products (agmatine, cadaverine or putrescine). We used internal standards to normalize and determine the peak intensity (area ratio) for each metabolite detected. Enzyme activity without inhibitor is referred to as a control activity. All experiments were performed in triplicate. The concentration of inhibitor that inhibited 50% of the control activity (IC50 value) was determined by varying the concentration of the indicated DFMO or DFMA and measuring the decarboxylase activity. Sigma Plot v. 12 was used to fit the curve through the points and IC50 values were interpolated from the fitted curve.

S. pneumoniae D39 = type: cell-based, Streptococcus pneumoniae
Protocol: This was done to directly compare possible changes in intracellular concentrations of polyamines and capsule precursors as a result of DFMO inhibition of polyamine synthesis to the earlier report where polyamine synthesis was affected via gene deletion in TIGR4[24]. […] Cells were harvested (5000×g, 10 min, 4 °C), re-suspended in extraction solvent [40% acetonitrile, 40% methanol, 20% water with formic acid (0.1 M)] and transferred to bead-beater tubes (MP Biomedicals, Irvine, CA, USA). Cells were lysed using a FastPrep-24™ Classic (45 s, 6.5 m/s, RT, 3 times) (MP Biomedicals, Irvine, CA, USA) and incubated on ice (5 min after each spin). TIGR4 lysates were clarified (6000×g, 5 min, 4 °C), and metabolite differentiation and detection were performed using published protocols[28],[29]. Liquid chromatography-mass spectrometry-based (LC–MS) metabolomic analysis was performed with an Agilent Accurate Mass 6230 TOF coupled with an Agilent 1290 LC system using a Cogent Diamond Hydride Type C column. Briefly, the mobile phase consisted of the following: solvent A (ddH2O with 0.2% formic acid) and solvent B (acetonitrile with 0.2% formic acid). The gradient used was as follows: 0–2 min, 85% B; 3–5 min, 80% B; 6–7 min, 75% B; 8–9 min, 70% B; 10–11.1 min, 50% B; 11.1–14 min 20% B; 14.1–24 min 5% B followed by a 10 min re-equilibration period at 85% B at a flow rate of 0.4 mL/min. Mass axis dynamics was calibrated by continuous infusion of a reference mass solution using an isocratic pump. […] Metabolite identities were searched for using a mass tolerance of < 0.005 Da. Metabolite concentrations from the 5 biological replicates were normalized to biomass based on measurement of residual peptide content in individual samples using the Pierce BCA Protein Assay kit (Thermo Fisher Scientific, Waltham, MA, USA). Data were analyzed using Profinder B.07.00 software (Agilent Technologies, Santa Clara, CA, USA). Extracted molecular features detected in the mass analyzer were identified using accurate mass values and used to generate empirical molecular formulae using an in-house metabolite database that included known intermediates, amino acid precursors and polyamines and their derivatives. Statistical analysis of metabolite peak intensity data was performed using MetaboAnalyst 4.0[30]. Data were normalized (quantile), log transformed and significant fold change between WT and DFMO-treated WT were identified by Student’s t-test (p ≤ 0.05).
To measure the polyamines, glucose and glucuronic acid in D39, TSQ Quantum Access triple-quadrupole tandem mass spectrometer (Thermo Fisher Scientific, Waltham, MA, USA) equipped with acquity UPLC system (Waters, Milford, MA, USA) was operated in positive and negative ion mode. Chromatographic separation was performed on Cogent Diamond Hydride HPLC column (2.1 mm × 150 mm, 4 μm) coupled with Congent Diamond Hydride HPLC Guard column (2.0 mm × 10 mm, 4 μm). The flow rate was 500 µL/min, the sample injection volume was 10 µL, and the column temperature was at 40 °C. The mobile phase A was composed of water with 0.1% v/v formic acid, and mobile phase B was composed of acetonitrile with 0.1% v/v formic acid. The gradient condition was 0 min (5% A, 95% B), 1 min (5% A, 95% B), 4.0 min (30% A, 70% B), 6 min (95% A, 5% B), 6.5 min (95% A, 5% B), 7 min (5% A, 95% B), and 10 min (5% A, 95%B). The total run time was 10 min, and the column eluate directed into the mass spectrometer using an electrospray ionization interface in positive and negative modes. The MS conditions were set as follow: spray voltage = 3500 V, vaporizer temperature = 350 °C, sheath gas = 25 psi, auxiliary gas = 10 psi, and capillary temperature = 350 °C. Samples were run in selected reaction monitoring (SRM) mode, and the optimized MS/MS parameters for ionization are given in Table 1.

[2] = tested on: S. pneumoniae serotype 2 (D39); experiment: DFMO susceptibility and growth in THY (OD600, MIC); type: cell-based, Streptococcus pneumoniae; settings: Streptococcus pneumoniae
Protocol: S. pneumoniae serotypes 4 (TIGR4), 2 (D39), 19F (EF3030) and 3 (WU2) were cultured in Todd Hewitt broth supplemented with yeast extract (THY). Supplementation with DFMO ranging from 1.1 to 549 mM was carried out in triplicate in a 96-well plate and incubated at 37 °C and 5% CO2 in a Cytation™ 5 cell imaging multi-mode reader (BioTek, Winooski, VT). The change in optical density at 600 nm (OD600) was measured every hour for 24 h and used to determine the minimum inhibitory concentration (MIC) of DFMO. The optical density data was analyzed using GrowthRates 4.0 software. To determine whether DFMO at sub-MIC is bacteriostatic or lethal to pneumococcal cells, all strains were cultured in the presence or absence of 1/2 MIC DFMO. OD600 was measured every hour and CFU were enumerated on a blood agar plate (BAP) every 2 h over an 8 h incubation period.

D39 (serotype 2) capsule = experiment: Total capsular polysaccharide (CPS) immunoblot with densitometry; type: cell-based, Streptococcus pneumoniae; settings: D39; for total CPS (capsule) by immunoblot: DFMO 1/8 MIC 34 mM, agmatine 1/4 MIC 20 mM, AMXT 1501 1/2 MIC 7.4 µM, alone or with agmatine
Protocol: (§1) S. pneumoniae strains were cultured with DFMO and AMXT 1501 at varying final concentrations of 1/2, 1/4, and 1/8 MIC to OD600 0.2–0.3 either individually or together to estimate any additive or synergistic effects. Capsular polysaccharides (CPS) were extracted and quantified in triplicate, as described previously[26] with slight modification. Briefly, CPS was extracted in a lysis buffer (4% deoxycholate, 50 µg/mL DNAse I and 50 µg/mL RNAse A) at 37 °C for 10 min and centrifuged at 18,000×g for 10 min. The supernatant (2 µL) was spotted on a 0.2-µm-pore-size nitrocellulose membrane (Thermo Fisher Scientific, Waltham, MA, USA) and oven dried at 60 °C for 15 min. The membranes were blocked and incubated with different types of antisera for capsule detection: antisera type- 4 (for TIGR4), 2 (for D39), polyclonal (for EF3030) and 3 (for WU2) (Cedarlane, Burlington, NC, USA). A conjugated polyclonal goat anti-rabbit IgG-HRP (Agilent Technologies, Santa Clara, CA, USA) was used for enhanced chemiluminescence (ECL) detection in all the strains (Thermo Fisher Scientific, Waltham, MA, USA) and scanned using a ChemiDoc XRS+ with Image Lab software (Bio-Rad, Hercules, CA, USA). Densitometry analysis of the immunoblot was done with NIH ImageJ software.
(§2) We determined the impact of varying concentrations of DFMO (1/8 to 1/2 MIC) on CPS in all serotypes (2, 4, 19F, and 3) used in this study. […] D39 was treated with 1/8 MIC DFMO alone, 1/4 MIC agmatine (Agm) alone, a combination of 1/8 MIC DFMO and 1/4 MIC Agm, and a control without DFMO or Agm. CPS was extracted as described in the previous section and immunoblot analysis with type 2 antisera was performed to detect CPS semi-quantitatively.

[3] = tested on: EF3030 (serotype 19F) capsule; experiment: as above; type: cell-based, Streptococcus pneumoniae; settings: serotype 19F; AMXT 1501 at 1/2 MIC
Protocol: as §1, §2

[4] = tested on: TIGR4 (serotype 4) capsule; experiment: as above; type: cell-based, Streptococcus pneumoniae; settings: serotype 4; AMXT 1501 at 1/2 MIC
Protocol: as §1, §2

WU2 (serotype 3) capsule = experiment: as above; type: cell-based, Streptococcus pneumoniae; settings: serotype 3; AMXT 1501 at 1/2 MIC
Protocol: as §1, §2

[5] = target: T1, SP_0916 (arginine decarboxylase, ADC); settings: Km of the enzyme for the decarboxylase substrate; rows named by product; previously reported ref 18; cited from earlier work
[6] = DFMO 34 mM, agmatine 20 mM, AMXT 1501 7.4 µM, p-value in bracket omitted

T1 sequence (A0A0H2UPK4 entry or part of it): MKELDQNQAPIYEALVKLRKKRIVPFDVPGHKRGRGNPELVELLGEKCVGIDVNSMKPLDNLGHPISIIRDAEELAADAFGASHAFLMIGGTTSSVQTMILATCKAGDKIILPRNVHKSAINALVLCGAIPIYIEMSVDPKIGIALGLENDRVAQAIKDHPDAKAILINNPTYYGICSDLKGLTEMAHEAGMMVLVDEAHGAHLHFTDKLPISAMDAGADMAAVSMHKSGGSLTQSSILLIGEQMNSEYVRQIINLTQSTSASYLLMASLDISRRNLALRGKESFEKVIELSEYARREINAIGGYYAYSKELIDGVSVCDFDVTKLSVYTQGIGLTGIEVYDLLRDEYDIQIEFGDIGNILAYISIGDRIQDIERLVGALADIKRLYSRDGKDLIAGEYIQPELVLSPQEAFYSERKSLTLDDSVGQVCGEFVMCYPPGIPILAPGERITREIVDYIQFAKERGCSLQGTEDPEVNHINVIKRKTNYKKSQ

| Compound | Agmatine, fold change treated D39 /D39 (S. pneumoniae D39; [6]) | Cadaverine, fold change treated D39 /D39 (S. pneumoniae D39; [6]) | Lysine, fold change treated D39 /D39 (S. pneumoniae D39; [6]) | N-acetyl spermidine, fold change treated D39 /D39 (S. pneumoniae D39; [6]) | N-carbamoyl putrescine, fold change treated D39 /D39 (S. pneumoniae D39; [6]) | Ornithine, fold change treated D39 /D39 (S. pneumoniae D39; [6]) | Putrescine, fold change treated D39 /D39 (S. pneumoniae D39; [6]) | Spermidine, fold change treated D39 /D39 (S. pneumoniae D39; [6]) | Spermine, fold change treated D39 /D39 (S. pneumoniae D39; [6]) | total CPS (capsule) by immunoblot (D39 (serotype 2) capsule) | Km [5] [µM] | other results |
| --- | --- | --- | --- | --- | --- | --- | --- | --- | --- | --- | --- | --- |
| N=C(N)NCCC[C@](N)(C(=O)O)C(F)F [DFMA, α-difluoromethylarginine] |  |  |  |  |  |  |  |  |  |  |  | IC50 ([1]; arginine to agmatine, 10 mM substrate, 15 min, 37 °C): 1.1 ± 0.1 µM; IC50 ([1]; lysine to cadaverine, 10 mM substrate, 15 min, 37 °C): 56.6 ± 11.9 µM; IC50 [1]: 40.5 ± 11.6 µM |
| CCCCCCCCCCCCCCCC(=O)NCCCC[C@@H](N)C(=O)NCCCNCCCCNCCCN [AMXT 1501] | -1.5 (0.006) | -1.2 (4.61E-04) | -0.5 (3.48E-04) | -1.6 (0.022) | -1.8 (0.016) | -0.5 (0.004) | -1.4 (0.001) | -5.5 (0.006) | -0.3 (0.455) | Loss of capsule |  | intracellular glucose (peak intensity) (S. pneumoniae D39; 1/8 MIC DFMO (34 mM), 1/2 MIC AMXT 1501 (7.4 µM)): increases glucose level; intracellular glucuronic acid (peak intensity) (S. pneumoniae D39; 1/8 MIC DFMO (34 mM), 1/2 MIC AMXT 1501 (7.4 µM), separately or in combination): significantly depleted; Arginine, fold change treated D39 /D39 (S. pneumoniae D39; [6]): -0.1 (0.546); MIC ([2]; read-out: 1/2 MIC): 7.4 µM (≈ 4.21 µg/mL); less capsule compared to untreated controls (densitometry of immunoblots) (D39 (serotype 2) capsule; 1/2 MIC AMXT 1501 (7.4 µM)): 61%; impact on CPS [3]: had no impact on CPS; impact on CPS [4]: had no impact on CPS; impact on CPS (WU2 (serotype 3) capsule): had no impact on CPS |
| NCCCCN [Putrescine, putrescine] |  |  |  |  |  |  |  |  |  |  | 3550 ± 280 |  |
| NCCCCN=C(N)N [Agmatine, agmatine] | 10.2 (1.61E-06) | -0.3 (0.204) | 0.1 (0.048) | 0.8 (0.009) | 9.6 (1.58E-05) | 0.1 (0.149) | 3.3 (0.004) | 0.6 (0.283) | 1.4 (3.30E-04) | does not impact the capsule | 110 ± 20 | MIC ([2]; D39, concentration equal to a quarter of the MIC, read-out: 1/4 MIC): 20000 µM (≈ 2600 µg/mL) |
| NCCCCCN [Cadaverine, cadaverine] |  |  |  |  |  |  |  |  |  |  | 1610 ± 280 |  |
